Earlier results as cited in article PMC4131438 (ACS chemical biology, 2014).

Experiments:
[1] = tested on: pro-apoptotic BAX
[2] = BIM BH3 aa 146-166 template, staple at R154/E158 i, i+4

Substance	binding to full-length BAX ([1]; aa 145-164 constructs)	α-helical content in solution [2] [%]	binding to pro-apoptotic BAX ([1]; fluorescence polarization binding assays, aa 146-166 constructs)
BIM BH3 peptide (aa 145-164): unmodified BIM BH3 peptide composed of amino acids 145-164	negligible binding	–	–
BIM BH3 peptide (aa 146-166): unmodified BIM BH3 peptide, amino acids 146-166	–	20	no detectable BAX interaction
